# Source: ChEMBL document CHEMBL4483862, “Open-source discovery of chemical leads for next-generation chemoprotective antimalarials” (2018)
# Test system: Plasmodium berghei
# Test: Luciferase/luciferin-expressing antifolate-resistant parasites were used to infect a culture of HepG2 cells that were pre-incubated with compounds. Infected hepatocytes emit light due to the luciferase reaction. Assay results are presented as the percent inhibition of light emission compared to control. […]
# Assay type: functional
# Settings: sporozoite; for IC50: read-out: LUCIFERASE INFECTION ASSAY - IC50; for IC90: read-out: LUCIFERASE INFECTION ASSAY - IC90
smiles,measurement,value
COc1ccc(CCN=C(S)Nc2ccccc2C)cc1,IC50,> 11 µM
same,IC90,> 11 µM
O=C(Nc1ccccc1)Nc1cccc(Cl)c1,IC50,> 13.4 µM
same,IC90,> 13.4 µM
Cc1ccc(C(=N)NOC(=O)c2cccc(Cn3cc(C(F)(F)F)ccc3=O)c2)cc1,IC50,> 7.69 µM
same,IC90,> 7.69 µM
C=CCc1ccccc1OCC(O)CN1CCN(c2ccccc2OC)CC1 (centres undefined),IC50,> 7.88 µM
same,IC90,> 7.88 µM
COc1cc(OC)cc(OCC(O)Cn2ccnc2)c1 (centres undefined),IC50,> 11.9 µM
same,IC90,> 11.9 µM
Cc1ccc(OCC(=O)NS(=O)(=O)c2ccccc2)cc1,IC50,> 10.8 µM
same,IC90,> 10.8 µM
CSC1=C(C#N)C(=O)NC(c2ccc(Cl)cc2Cl)S1 (centres undefined),IC50,> 9.96 µM
same,IC90,> 9.96 µM
COc1ccc(CC(N)c2csc(NC(=O)Nc3ccccc3Oc3ccccc3)n2)cc1 (centres undefined),IC50,> 7.17 µM
same,IC90,> 7.17 µM
COc1ccc(CC(N)c2csc(NC(=O)c3cc(C(C)(C)C)oc3C)n2)cc1 (centres undefined),IC50,2.91 µM
same,IC90,4.39 µM
CNc1nc(NCc2ccc(C)cc2C)c2sccc2n1,IC50,> 11.1 µM
same,IC90,> 11.1 µM
COc1ccccc1CNc1nc(NCc2ccccc2SC)c2sccc2n1,IC50,> 7.81 µM
same,IC90,> 7.81 µM
COc1ccc(C(C)(O)c2nc(-c3cccc(F)c3)cs2)cc1 (centres undefined),IC50,5.17 µM
same,IC90,5.23 µM
O=[N+]([O-])c1cnc(Sc2nnc(O)n2-c2ccc(OCc3ccccc3)cc2)s1,IC50,3.81 µM
same,IC90,> 7.72 µM
Cc1nnc(Sc2ncc([N+](=O)[O-])s2)n1-c1ccc(OCc2ccccc2)cc1,IC50,> 7.76 µM
same,IC90,> 7.76 µM
CN(C)C(=O)c1ccc(-c2cc3c(Nc4cccc(N(C)C)c4)nccc3n2C)cc1,IC50,> 10 µM
same,IC90,> 10 µM
COc1ccc(Cl)cc1NC(=O)N1CCC(Cc2ccccc2)CC1,IC50,> 9.2 µM
same,IC90,> 9.2 µM
COc1ccc2[nH]cc(CCNC(=O)Nc3ccc(Cl)c(Cl)c3)c2c1,IC50,> 8.72 µM
same,IC90,> 8.72 µM
CCOC(=O)c1cc(Sc2ccccc2NC(=O)Nc2ccc(C)cc2)cc(C(=O)OCC)n1,IC50,> 6.88 µM
same,IC90,> 6.88 µM
CC(C)(C)c1ccc(OCC(=N)NC(=O)c2ccc(OC(F)(F)F)cc2)cc1,IC50,> 8.37 µM
same,IC90,> 8.37 µM
Clc1ccc(-c2nnc(Sc3nc(-c4cccs4)ns3)[nH]2)cc1,IC50,> 8.73 µM
same,IC90,> 8.73 µM
CC(=C(C#N)C#N)c1ccc2c(c1)OCCO2,IC50,> 10 µM
same,IC90,> 10 µM
CC(C)(C)c1ccccc1NC(=O)Nc1nc(C(N)Cc2ccccc2)cs1 (centres undefined),IC50,4.59 µM
same,IC90,7.79 µM
COC(=O)c1cnc(Sc2n[nH]c(=O)n2C2CCCCC2)c([N+](=O)[O-])c1,IC50,> 8.7 µM
same,IC90,> 8.7 µM
NC(Cc1ccccc1)c1csc(NC(=O)NC(c2ccccc2)c2ccccc2)n1 (centres undefined),IC50,> 7.7 µM
same,IC90,> 7.7 µM
Nc1ncc(-c2ccc(F)c(Cl)c2)cc1-c1ccc(O)cc1,IC50,> 10.5 µM
same,IC90,> 10.5 µM
C=CCSc1nnc(-c2ccco2)n1-c1ccc(OCc2ccccc2)cc1,IC50,> 8.47 µM
same,IC90,> 8.47 µM
CC(=O)c1ccc(N2CCN(Cc3ccc(C)s3)CC2)cc1,IC50,> 10.5 µM
same,IC90,> 10.5 µM
COC(=O)c1cnc(Sc2n[nH]c(=O)n2-c2ccc(Cl)cc2)c([N+](=O)[O-])c1,IC50,> 8.09 µM
same,IC90,> 8.09 µM
Clc1cccc(-c2cc3c(Nc4ccccn4)nccc3[nH]2)c1,IC50,6.48 µM
same,IC90,6.66 µM
Cc1ccc(-c2cnc(N)c(-c3ccc(C(=O)NCCN(C)C)cc3)c2)cc1,IC50,> 8.81 µM
same,IC90,> 8.81 µM
COc1ccc(CC(N)c2csc(NC(=O)Nc3cccc(Cl)c3)n2)cc1 (centres undefined),IC50,> 8.19 µM
same,IC90,> 8.19 µM
Nc1ncc(-c2cc(C(F)(F)F)cc(C(F)(F)F)c2)cc1-c1ccc(O)cc1,IC50,> 8.29 µM
same,IC90,> 8.29 µM
CCc1ccc(C2NC(=O)NC(C)=C2C(=O)c2ccccc2)cc1 (centres undefined),IC50,> 10 µM
same,IC90,> 10 µM
Nc1ncc(-c2cc(C(F)(F)F)cc(C(F)(F)F)c2)cc1-c1cncc2ccccc12,IC50,> 7.62 µM
same,IC90,> 7.62 µM
Cc1cc(NC(=O)COc2ccc(C(C)C)cc2)no1,IC50,> 12 µM
same,IC90,> 12 µM
Cc1ccc(Cn2nc(C)cc2C(=O)Sc2ccccc2)cc1,IC50,> 10.2 µM
same,IC90,> 10.2 µM
Nc1ncc(-c2ccc(F)c(Cl)c2)cc1-c1cccc(O)c1,IC50,> 10.5 µM
same,IC90,> 10.5 µM
Cc1ccccc1N1CCCn2c1nc1c2c(=O)[nH]c(=O)n1C,IC50,> 10.6 µM
same,IC90,> 10.6 µM
CCOC(=O)c1[nH]c2ccccc2c1-c1ccccc1,IC50,> 12.4 µM
same,IC90,> 12.4 µM
COc1ccccc1-c1cc2c(Nc3ccc4c(c3)OCCO4)nccc2n1C,IC50,2.39 µM
same,IC90,4.78 µM
CC(C)Oc1ccc(Nc2nccc3[nH]c(-c4ccsc4)cc23)cc1,IC50,2.25 µM
same,IC90,4.09 µM
Clc1cc(Cl)cc(-c2nnc(Sc3nc(-c4cccs4)ns3)[nH]2)c1,IC50,> 8 µM
same,IC90,> 8 µM
CC(C)CC(N)c1csc(NC(=O)c2ccc(F)c(Cl)c2)n1 (centres undefined),IC50,8.74 µM
same,IC90,> 9.65 µM
Cc1ccc(CSc2n[nH]c(=O)n2C2CC3C=CC2C3)cc1 (centres undefined),IC50,> 10.5 µM
same,IC90,> 10.5 µM
COc1ccccc1-c1cc(-c2cccc(OC(F)(F)F)c2)cnc1N,IC50,> 9.16 µM
same,IC90,> 9.16 µM
COc1ccccc1Nc1nc(-c2c(-c3ccc(Cl)cc3Cl)noc2C)cs1,IC50,2.27 µM
same,IC90,7.32 µM
CCOC(=O)c1cc(C#N)c(Sc2n[nH]c(=O)n2Cc2ccccc2)nc1C(F)(F)F,IC50,> 7.34 µM
same,IC90,> 7.34 µM
CC(C)(C)c1cc(C(=O)Nc2nc(C(N)CCc3ccccc3)cs2)n(Cc2ccccc2)n1 (centres undefined),IC50,> 6.97 µM
same,IC90,> 6.97 µM
NC(Cc1ccccc1)c1csc(NC(=O)Nc2ccccc2-c2ccccc2)n1 (centres undefined),IC50,> 7.96 µM
same,IC90,> 7.96 µM
NC(c1csc(NC(=O)Nc2cccc3ccccc23)n1)C1CCCCC1 (centres undefined),IC50,> 8.67 µM
same,IC90,> 8.67 µM
c1ccc(-c2cc3c(Nc4ccccn4)nccc3[nH]2)cc1,IC50,> 10 µM
same,IC90,> 10 µM
CCOc1ccccc1N1CCN(CC(=O)Nc2cc(C)ccc2C)CC1,IC50,> 10 µM
same,IC90,> 10 µM
O=C(CSc1nnc(-c2ccco2)n1-c1ccc(OCc2ccccc2)cc1)c1ccc(Cl)cc1,IC50,> 6.57 µM
same,IC90,> 6.57 µM
COc1cc2c(cc1OC)C(c1cccc(C(F)(F)F)c1)CC(=O)N2 (centres undefined),IC50,> 9.39 µM
same,IC90,> 9.39 µM
CCCCc1ccc(NC(=O)c2cc(OC)c(OC)c(OC)c2)cc1,IC50,> 9.61 µM
same,IC90,> 9.61 µM
Nc1ncc(-c2cc(F)c(F)c(F)c2)cc1-c1cccc(O)c1,IC50,> 10.4 µM
same,IC90,> 10.4 µM
O=C(CC1(O)C(=O)Nc2ccccc21)c1ccc(OCC(=O)N2CCOCC2)cc1 (centres undefined),IC50,> 10 µM
same,IC90,> 10 µM
CC(N)c1csc(NC(=O)c2cccnc2Oc2ccccc2)n1 (centres undefined),IC50,3.09 µM
same,IC90,5.22 µM
CCN(CC)c1ccc(Nc2nc(-c3sc(C)nc3C)cs2)cc1,IC50,> 9.2 µM
same,IC90,> 9.2 µM
CCOC(=O)c1cc(C#N)c(N2CCN(S(=O)(=O)c3ccccc3Cl)CC2)nc1C(F)(F)F,IC50,> 6.56 µM
same,IC90,> 6.56 µM
CN1CCc2nc3sc(C(=O)Nc4ccc(Cl)cc4F)c(N)c3cc2C1,IC50,> 8.44 µM
same,IC90,> 8.44 µM
COc1cc(OC)cc(Oc2nc(NC(C)C)nc3ccsc23)c1,IC50,1.25 µM
same,IC90,1.38 µM
NC(CCc1ccccc1)c1csc(NC(=O)Nc2cccc3ccccc23)n1 (centres undefined),IC50,5.11 µM
same,IC90,> 8.2 µM
CS(=O)(=O)Nc1ccc(C(=N)NOC(=O)Nc2ccc(C(F)(F)F)cc2)cc1,IC50,> 7.93 µM
same,IC90,> 7.93 µM
CC(C)c1ccc(NC(=O)CCCc2ccccc2)cc1,IC50,> 11.7 µM
same,IC90,> 11.7 µM
COc1ccc(Nc2nccc3[nH]c(-c4ccsc4)cc23)cn1,IC50,> 10 µM
same,IC90,> 10 µM
FC(F)(F)c1cccc(NC(=S)Nc2cccnc2N2CCC(C(F)(F)F)CC2)c1,IC50,> 7.36 µM
same,IC90,> 7.36 µM
CCOC(=O)c1c[nH]c2ccc(OC(F)(F)F)cc2c1=O,IC50,> 11 µM
same,IC90,> 11 µM
CC(C)(C)c1ccc(NC(=O)c2sc3nc4c(c(-c5cccnc5)c3c2N)CCC4)cc1,IC50,> 7.46 µM
same,IC90,> 7.46 µM
COCOc1ccc(-c2cc(-c3cc(C)c(O)c(C)c3)cnc2N)cc1,IC50,4.46 µM
same,IC90,6.77 µM
Cc1ccc(C(=O)Nc2nc(C(N)Cc3ccccc3)cs2)cc1 (centres undefined),IC50,> 9.78 µM
same,IC90,> 9.78 µM
CC(C)Oc1cccc(Nc2nccc3[nH]c(-c4cccc(F)c4)cc23)c1,IC50,1.49 µM
same,IC90,> 10 µM
CC(C)(C)NC(=O)c1cc(-c2ccccc2Cl)nc2ccccc12,IC50,> 9.74 µM
same,IC90,> 9.74 µM
Cc1nn(CC(=O)Nc2cccc(Cl)c2)c(C)c1Oc1ccccc1,IC50,5.38 µM
same,IC90,> 9.27 µM
O=C(CSc1nnc(-c2ccco2)n1-c1ccc2c(c1)OCCO2)Nc1cc(Cl)cc(Cl)c1,IC50,> 6.56 µM
same,IC90,> 6.56 µM
NC(c1ccccc1)c1csc(NC(=O)NC(c2ccccc2)c2ccccc2)n1 (centres undefined),IC50,> 7.96 µM
same,IC90,> 7.96 µM
CC(C)(C)c1ccc(NC(=O)NCCSCc2ccco2)cc1,IC50,> 9.93 µM
same,IC90,> 9.93 µM
CC(C)CC(N)c1csc(NC(=O)NC(c2ccccc2)c2ccccc2)n1 (centres undefined),IC50,2.93 µM
same,IC90,3.63 µM
FC(F)(F)c1cc(Nc2ncc(-c3ccc4c(c3)OCCCO4)s2)cc(C(F)(F)F)c1,IC50,5.2 µM
same,IC90,> 7.17 µM
CC(=O)Nc1cccc(Nc2nccc3[nH]c(-c4cccc(C(F)(F)F)c4)cc23)c1,IC50,0.705 µM
same,IC90,2.28 µM
O=C(O)COc1ccccc1/C=C1\NC(=S)NC1=O,IC50,> 10 µM
same,IC90,> 10 µM
Cc1nn(CC(=O)Nc2cccc(C(F)(F)F)c2)c(C)c1Oc1ccccc1,IC50,3.94 µM
same,IC90,8.01 µM
CC(=O)Oc1ccccc1C(=O)NCc1ccc(C)cc1,IC50,> 11.6 µM
same,IC90,> 11.6 µM
NC(=O)c1ccc(-c2cc(-c3cc(F)c(F)c(F)c3)cnc2N)cc1,IC50,> 9.61 µM
same,IC90,> 9.61 µM
COC(=O)c1cnc(Sc2n[nH]c(=O)n2-c2cccc(C(F)(F)F)c2)c([N+](=O)[O-])c1,IC50,> 7.48 µM
same,IC90,> 7.48 µM
NC(Cc1ccc(F)cc1)c1csc(NC(=O)Nc2ccccc2Oc2ccccc2)n1 (centres undefined),IC50,> 7.36 µM
same,IC90,> 7.36 µM
Cc1cccc(Cn2nc(C(C)(C)C)cc2-c2nnc(SCc3ccccc3)n2C2CCCCC2)c1,IC50,> 6.6 µM
same,IC90,> 6.6 µM
